Where a SMILES comes first, the peptide text is derived from it.
Tests used:
[1] = system: SARS-CoV-2, USA-WA1/2020; conditions: USA-WA1/2020, 1 h, 200 μM
[2] = target: HRP-conjugated-S-protein-RBD binding to hACE2 (Severe acute respiratory syndrome coronavirus 2, UniProt P0DTC2); experiment: biochemical; design: species or system SARS-CoV-2; conditions: sVNT ELISA, dose-dependent, FIG. 4
[3] = Peptide stability by repeating the sVNT ELISA two months apart with the same solubilized peptide; type: physicochemical; conditions: ELISA tests two months apart with the same solubilized peptide
From the text: FIGS. 4A-B. Surrogate virus test results for peptide 122023-C. FIG. 4A are results obtained in a first experiment and FIG. 4B are results obtained in a second experiment two months later using the same solubilized peptide.

[4] = target: HRP-conjugated-S-protein-RBD (SARS-CoV-2), P0DTC2

With `CC(C)C[C@H](NC(=O)[C@H](CCC(N)=O)NC(=O)[C@H](CCC(=O)O)NC(=O)[C@H](C)NC(=O)[C@H](Cc1ccccc1)NC(=O)[C@H](CCCNC(=N)N)NC(=O)[C@H](CCC(=O)O)NC(=O)[C@H](CC(C)C)NC(=O)[C@H](Cc1ccccc1)NC(=O)[C@H](Cc1ccc(O)cc1)NC(=O)[C@H](CCCCN)NC(=O)[C@H](CC(C)C)NC(=O)[C@H](CCC(N)=O)NC(=O)[C@H](CCC(N)=O)NC(=O)[C@@H](N)CCC(=O)O)C(=O)N[C@@H](CCC(=O)O)C(=O)N[C@@H](CCC(N)=O)C(=O)N[C@@H](CC(C)C)C(=O)N[C@@H](Cc1ccccc1)C(=O)N[C@@H](Cc1ccc(O)cc1)C(=O)N[C@@H](CCC(N)=O)C(=O)N[C@@H](CO)C(=O)N[C@@H](CO)C(=O)O` [Peptide 122023-A] (H-EQQLKYFLERFAEQLEQLFYQSS-OH; N-terminus and C-terminus assumed) the “inhibition at the highest concentration studied” value [1] was “up to 95%”.

In the case of `CC(C)C[C@H](NC(=O)[C@H](CC(=O)O)NC(=O)[C@H](CCC(=O)O)NC(=O)[C@H](CC(C)C)NC(=O)[C@H](CCC(N)=O)NC(=O)[C@H](CCC(=O)O)NC(=O)[C@H](CC(N)=O)NC(=O)[C@H](Cc1ccccc1)NC(=O)[C@H](CCCNC(=N)N)NC(=O)[C@H](CCC(=O)O)NC(=O)[C@H](CC(C)C)NC(=O)[C@H](Cc1ccccc1)NC(=O)[C@H](Cc1ccc(O)cc1)NC(=O)[C@H](CCCCN)NC(=O)[C@H](CC(C)C)NC(=O)[C@H](CCC(N)=O)NC(=O)[C@H](CCC(N)=O)NC(=O)[C@@H](N)CCC(=O)O)C(=O)N[C@@H](Cc1ccccc1)C(=O)N[C@@H](Cc1ccc(O)cc1)C(=O)N[C@@H](CCC(N)=O)C(=O)N[C@@H](CO)C(=O)N[C@@H](CO)C(=O)O` [Peptide 122023-C] (H-EQQLKYFLERFNEQLEDLFYQSS-OH), the IC50 [2] is reported as roughly 33.8 nM and the peptide stability [3] is reported as “Excellent peptide stability”.

For EQQLKYFLERFNEQLEDLFYQSS (modifications not checked) [peptide 122023-C], the IC50 [4] was 0.1 µg/mL.
